# A compilation of properties of binary mixtures (doi:10.1016/j.molliq.2014.08.031)
# Assay: xn = mol fraction of the nth substance listed
# Conditions: 101 kPa
structure (smiles),measurement,setting,value
CCCC[n+]1ccn(C)c1.CS(=O)(=O)[O-] + O,electrical conductivity,"298.15 K, x1 = 0.004",1.17 S/m
same,electrical conductivity,"298.15 K, x1 = 0.008",2.08 S/m
same,electrical conductivity,"298.15 K, x1 = 0.019",3.25 S/m
same,viscosity,"298.15 K, x2 = 0.5596",50 mPa·s
same,electrical conductivity,"298.15 K, x2 = 0.785",1.15 S/m
same,viscosity,"298.15 K, x2 = 0.8016",13.45 mPa·s
same,viscosity,"298.15 K, x2 = 0.8521",8.87 mPa·s
same,electrical conductivity,"298.15 K, x2 = 0.861",2.33 S/m
same,electrical conductivity,"298.15 K, x2 = 0.892",2.95 S/m
same,viscosity,"298.15 K, x2 = 0.9004",5.45 mPa·s
same,viscosity,"298.15 K, x2 = 0.9254",4.05 mPa·s
same,electrical conductivity,"298.15 K, x2 = 0.929",3.58 S/m
same,viscosity,"298.15 K, x2 = 0.9503",2.73 mPa·s
same,electrical conductivity,"298.15 K, x2 = 0.968",3.96 S/m
same,electrical conductivity,"299.15 K, x1 = 0.004",1.2 S/m
same,electrical conductivity,"299.15 K, x1 = 0.019",3.33 S/m
same,electrical conductivity,"299.15 K, x2 = 0.704",0.601 S/m
same,electrical conductivity,"299.15 K, x2 = 0.785",1.18 S/m
same,electrical conductivity,"299.15 K, x2 = 0.796",1.29 S/m
same,electrical conductivity,"299.15 K, x2 = 0.861",2.39 S/m
same,electrical conductivity,"299.15 K, x2 = 0.929",3.67 S/m
same,electrical conductivity,"299.15 K, x2 = 0.968",4.04 S/m
same,electrical conductivity,"300.15 K, x1 = 0.008",2.17 S/m
same,electrical conductivity,"300.15 K, x1 = 0.019",3.4 S/m
same,electrical conductivity,"300.15 K, x2 = 0.704",0.634 S/m
same,electrical conductivity,"300.15 K, x2 = 0.785",1.23 S/m
same,electrical conductivity,"300.15 K, x2 = 0.796",1.3 S/m
same,electrical conductivity,"300.15 K, x2 = 0.861",2.5 S/m
same,electrical conductivity,"300.15 K, x2 = 0.892",3.02 S/m
same,electrical conductivity,"300.15 K, x2 = 0.929",3.75 S/m
same,electrical conductivity,"300.15 K, x2 = 0.951",4.23 S/m
same,electrical conductivity,"300.15 K, x2 = 0.968",4.13 S/m
same,electrical conductivity,"301.15 K, x1 = 0.004",1.27 S/m
same,electrical conductivity,"301.15 K, x1 = 0.008",2.23 S/m
same,electrical conductivity,"301.15 K, x1 = 0.019",3.5 S/m
same,electrical conductivity,"301.15 K, x2 = 0.704",0.661 S/m
same,electrical conductivity,"301.15 K, x2 = 0.785",1.28 S/m
same,electrical conductivity,"301.15 K, x2 = 0.796",1.36 S/m
same,electrical conductivity,"301.15 K, x2 = 0.892",3.11 S/m
same,electrical conductivity,"301.15 K, x2 = 0.929",3.87 S/m
same,electrical conductivity,"301.15 K, x2 = 0.951",4.33 S/m
same,electrical conductivity,"301.15 K, x2 = 0.968",4.05 S/m
same,electrical conductivity,"302.15 K, x1 = 0.004",1.29 S/m
same,electrical conductivity,"302.15 K, x1 = 0.008",2.26 S/m
same,electrical conductivity,"302.15 K, x2 = 0.704",0.663 S/m
same,electrical conductivity,"302.15 K, x2 = 0.796",1.41 S/m
same,electrical conductivity,"302.15 K, x2 = 0.892",3.2 S/m
same,electrical conductivity,"302.15 K, x2 = 0.929",3.97 S/m
same,electrical conductivity,"302.15 K, x2 = 0.951",4.43 S/m
same,electrical conductivity,"302.15 K, x2 = 0.968",4.28 S/m
same,electrical conductivity,"303.15 K, x1 = 0.004",1.31 S/m
same,electrical conductivity,"303.15 K, x1 = 0.008",2.31 S/m
same,electrical conductivity,"303.15 K, x1 = 0.019",3.66 S/m
same,electrical conductivity,"303.15 K, x2 = 0.785",1.39 S/m
same,electrical conductivity,"303.15 K, x2 = 0.796",1.47 S/m
same,electrical conductivity,"303.15 K, x2 = 0.892",3.3 S/m
same,electrical conductivity,"303.15 K, x2 = 0.929",4.16 S/m
same,electrical conductivity,"303.15 K, x2 = 0.951",4.54 S/m
same,electrical conductivity,"303.15 K, x2 = 0.968",4.41 S/m
same,electrical conductivity,"304.15 K, x1 = 0.004",1.34 S/m
same,electrical conductivity,"304.15 K, x1 = 0.008",2.37 S/m
same,electrical conductivity,"304.15 K, x1 = 0.019",3.73 S/m
same,electrical conductivity,"304.15 K, x2 = 0.704",0.753 S/m
same,electrical conductivity,"304.15 K, x2 = 0.785",1.44 S/m
same,electrical conductivity,"304.15 K, x2 = 0.861",2.79 S/m
same,electrical conductivity,"304.15 K, x2 = 0.892",3.4 S/m
same,electrical conductivity,"304.15 K, x2 = 0.929",4.22 S/m
same,electrical conductivity,"304.15 K, x2 = 0.951",4.61 S/m
same,electrical conductivity,"304.15 K, x2 = 0.968",4.55 S/m
same,electrical conductivity,"305.15 K, x1 = 0.008",2.4 S/m
same,electrical conductivity,"305.15 K, x1 = 0.019",3.77 S/m
same,electrical conductivity,"305.15 K, x2 = 0.785",1.46 S/m
same,electrical conductivity,"305.15 K, x2 = 0.796",1.56 S/m
same,electrical conductivity,"305.15 K, x2 = 0.892",3.51 S/m
same,electrical conductivity,"305.15 K, x2 = 0.929",4.35 S/m
same,electrical conductivity,"305.15 K, x2 = 0.951",4.74 S/m
same,electrical conductivity,"305.15 K, x2 = 0.968",4.51 S/m
same,electrical conductivity,"306.15 K, x1 = 0.008",2.45 S/m
same,electrical conductivity,"306.15 K, x1 = 0.019",3.85 S/m
same,electrical conductivity,"306.15 K, x2 = 0.704",0.815 S/m
same,electrical conductivity,"306.15 K, x2 = 0.785",1.49 S/m
same,electrical conductivity,"306.15 K, x2 = 0.796",1.62 S/m
same,electrical conductivity,"306.15 K, x2 = 0.892",3.6 S/m
same,electrical conductivity,"306.15 K, x2 = 0.929",4.49 S/m
same,electrical conductivity,"306.15 K, x2 = 0.951",5.02 S/m
same,electrical conductivity,"306.15 K, x2 = 0.968",4.73 S/m
same,electrical conductivity,"307.15 K, x1 = 0.004",1.42 S/m
same,electrical conductivity,"307.15 K, x1 = 0.019",4.02 S/m
same,electrical conductivity,"307.15 K, x2 = 0.704",0.851 S/m
same,electrical conductivity,"307.15 K, x2 = 0.796",1.64 S/m
same,electrical conductivity,"307.15 K, x2 = 0.861",3.04 S/m
same,electrical conductivity,"307.15 K, x2 = 0.892",3.74 S/m
same,electrical conductivity,"307.15 K, x2 = 0.929",4.59 S/m
same,electrical conductivity,"307.15 K, x2 = 0.951",4.98 S/m
same,electrical conductivity,"307.15 K, x2 = 0.968",4.78 S/m
same,electrical conductivity,"308.15 K, x1 = 0.004",1.44 S/m
same,electrical conductivity,"308.15 K, x1 = 0.008",2.62 S/m
same,electrical conductivity,"308.15 K, x2 = 0.704",0.882 S/m
same,electrical conductivity,"308.15 K, x2 = 0.785",1.64 S/m
same,electrical conductivity,"308.15 K, x2 = 0.796",1.69 S/m
same,electrical conductivity,"308.15 K, x2 = 0.892",3.83 S/m
same,electrical conductivity,"308.15 K, x2 = 0.929",4.72 S/m
same,electrical conductivity,"308.15 K, x2 = 0.951",5.05 S/m
same,electrical conductivity,"309.15 K, x1 = 0.004",1.47 S/m
same,electrical conductivity,"309.15 K, x1 = 0.008",2.62 S/m
same,electrical conductivity,"309.15 K, x1 = 0.019",4.14 S/m
same,electrical conductivity,"309.15 K, x2 = 0.704",0.921 S/m
same,electrical conductivity,"309.15 K, x2 = 0.861",3.17 S/m
same,electrical conductivity,"309.15 K, x2 = 0.892",3.93 S/m
same,electrical conductivity,"309.15 K, x2 = 0.929",4.79 S/m
same,electrical conductivity,"309.15 K, x2 = 0.951",5.22 S/m
same,electrical conductivity,"310.15 K, x1 = 0.004",1.5 S/m
same,electrical conductivity,"310.15 K, x1 = 0.008",2.66 S/m
same,electrical conductivity,"310.15 K, x2 = 0.704",0.956 S/m
same,electrical conductivity,"310.15 K, x2 = 0.785",1.74 S/m
same,electrical conductivity,"310.15 K, x2 = 0.796",1.8 S/m
same,electrical conductivity,"310.15 K, x2 = 0.929",4.93 S/m
same,electrical conductivity,"310.15 K, x2 = 0.951",5.35 S/m
same,electrical conductivity,"311.15 K, x1 = 0.004",1.54 S/m
same,electrical conductivity,"311.15 K, x1 = 0.008",2.73 S/m
same,electrical conductivity,"311.15 K, x1 = 0.019",4.21 S/m
same,electrical conductivity,"311.15 K, x2 = 0.704",0.987 S/m
same,electrical conductivity,"311.15 K, x2 = 0.785",1.79 S/m
same,electrical conductivity,"311.15 K, x2 = 0.796",1.86 S/m
same,electrical conductivity,"311.15 K, x2 = 0.892",4.16 S/m
same,electrical conductivity,"311.15 K, x2 = 0.929",5.04 S/m
same,electrical conductivity,"311.15 K, x2 = 0.951",5.47 S/m
same,electrical conductivity,"311.15 K, x2 = 0.968",5.2 S/m
same,electrical conductivity,"312.15 K, x1 = 0.004",1.57 S/m
same,electrical conductivity,"312.15 K, x1 = 0.008",2.75 S/m
same,electrical conductivity,"312.15 K, x1 = 0.019",4.39 S/m
same,electrical conductivity,"312.15 K, x2 = 0.704",1.06 S/m
same,electrical conductivity,"312.15 K, x2 = 0.785",1.86 S/m
same,electrical conductivity,"312.15 K, x2 = 0.861",3.44 S/m
same,electrical conductivity,"312.15 K, x2 = 0.892",4.28 S/m
same,electrical conductivity,"312.15 K, x2 = 0.929",5.15 S/m
same,electrical conductivity,"312.15 K, x2 = 0.951",5.65 S/m
same,electrical conductivity,"312.15 K, x2 = 0.968",5.28 S/m
same,electrical conductivity,"313.15 K, x1 = 0.004",1.58 S/m
same,electrical conductivity,"313.15 K, x1 = 0.008",2.8 S/m
same,electrical conductivity,"313.15 K, x1 = 0.019",4.46 S/m
